From ChEMBL document CHEMBL3286211, “Pyrimidinylpiperdinyloxypyridone Analogues as GPR119 Modulators” (ACS Med Chem Lett, 2014)

Tests used:
[1] = Agonist activity at human-mouse chimeric GPR119 expressed in tetracycline-induced Flp-In-T-Rex-HEK293 cells assessed as accumulation of cAMP after 50 mins by HTRF assay; type: cell-based; settings: HEK293, 50 min
[2] = test system: Mus musculus; assay: Antidiabetic activity in C57BL/6J mouse assessed as reduction in plasma glucose level at 0.03 mg/kg, po administered for 60 mins followed by glucose challenge measured for 30 to 120 mins by OGTT relative to vehicle-treated control; type: functional; parameters: scale not given: the % may be the effect or the level left
[3] = Half life in human liver microsomes at 50 uM preincubated for 5 mins followed by NADPH addition by LC/MS-MS analysis; type: ADME
[4] = test system: Mus musculus; assay: Antidiabetic activity in C57BL/6J mouse assessed as reduction in plasma glucose level at 0.1 mg/kg, po administered for 60 mins followed by glucose challenge measured for 30 to 120 mins by OGTT relative to vehicle-treated control; type: functional; parameters: scale not given: the % may be the effect or the level left

Row | Structure (SMILES) | EC50 [1] [nM] | Activity [2] [%] | half-life at 50 µM [3] [h] | Activity [4] [%]
1 | Cc1nc(-n2cc(Cl)c(OC3CCN(c4ncc(Cl)cn4)CC3)cc2=O)ccc1N1CCC(O)C1=O (configuration not stated) | 2 | 36 | 1.57 | –
2 | CCCc1cnc(N2CCC(Oc3cc(=O)n(-c4ccc(N5CCC(O)C5=O)c(C)n4)cc3Cl)CC2)nc1 (configuration not stated) | 4 | 19 | 2 | –
3 | Cc1nc(-n2cc(Cl)c(OC3CCN(c4ncc(Cl)cn4)CC3)cc2=O)ccc1N1CC[C@H](O)C1=O | 4 | 26 | 1.3 | –
4 | Cc1nc(-n2cc(Cl)c(OC3CCN(c4ncc(Cl)cn4)CC3)cc2=O)ccc1N1CC[C@@H](O)C1=O | 3 | 39 | 1.62 | –
5 | CCCc1cnc(N2CCC(Oc3ccn(-c4ccc(N5CCC(O)C5=O)c(C)n4)c(=O)c3)CC2)nc1 (configuration not stated) | 16 | – | 1.27 | 21
6 | Cc1nc(-n2ccc(OC3CCN(c4ncc(Cl)cn4)CC3)cc2=O)ccc1N1CCC(O)C1=O (configuration not stated) | 10 | – | 1.68 | –
